{
  "source": "paper PMC3775607",
  "about": "(Chembiochem : a European journal of chemical biology, 2012)",
  "key": {"[1]": {"molecular_target": "T1, p38α (Mus musculus, UniProt P47811)", "T1 sequence (P47811 2-360)": "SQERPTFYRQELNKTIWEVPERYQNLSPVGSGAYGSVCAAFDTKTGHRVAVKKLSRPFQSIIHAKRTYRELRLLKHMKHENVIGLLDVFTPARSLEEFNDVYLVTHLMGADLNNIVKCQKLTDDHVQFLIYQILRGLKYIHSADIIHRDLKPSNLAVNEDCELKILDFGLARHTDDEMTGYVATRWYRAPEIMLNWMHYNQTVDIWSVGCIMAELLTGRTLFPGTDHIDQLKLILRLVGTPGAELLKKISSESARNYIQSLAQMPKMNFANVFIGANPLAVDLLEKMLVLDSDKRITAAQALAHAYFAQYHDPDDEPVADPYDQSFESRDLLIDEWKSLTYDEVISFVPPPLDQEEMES", "test": "radiometric kinase assay with GST-ATF2", "format": "biochemical"}, "[2]": {"molecular_target": "T1, p38α", "test": "competition with covalent DRS probe […] at […], in-gel fluorescence", "format": "binding"}},
  "data": [
    {"smiles": "Oc1ccc(C#CC/C=C/c2ccc(O)c(O)c2)cc1O", "note": "[rooperol]", "values": [
      {"measurement": "IC50", "setting": "[1]", "result": 18.6, "unit": "µM"}
    ]},
    {"smiles": "O=C(/C=C/c1ccc(O)c(O)c1)OCCc1ccccc1", "note": "[CAPE, caffeic acid phenethyl ester]", "values": [
      {"measurement": "competition with covalent DRS probe 3 at 200 μM, in-gel fluorescence", "setting": "[2]", "result": "rooperol shows the strongest inhibition, followed closely by the honey bee propolis-derived caffeic acid phenethyl ester (CAPE"}
    ]}
  ]
}
